According to patent US8722731B2, “Furanyl compounds and the use thereof” (NovoMedix, LLC, priority 2010, dated 2014):
Read-outs that look alike come from different tables or passages of the source.

Legend:
HT-29 = test: IC50 cell-based assay, adherent cells, HT-29; conditions: Homo sapiens, Colorectal, adenocarcinoma, 72 hours, read-out: IC50 of Compounds in Adherent Cell Types
Protocol: (§1) In one embodiment, the IC50s of the compounds provided herein were determined in cell-based assays using adherent cells. In one embodiment, the activity of the compounds provided herein were determined in a cell-based assay using the triple negative breast cancer cell line MDA-MB-468. In one embodiment, the adherent cells used in the cell-based assays may be a cell type selected from Table 1. In one embodiment, the cell-based assay may be carried out as provided herein. On day 0, cells were seeded at 20,000 cells per well in 100 µL of media into individual wells of a 96-well tissue culture plate. The next day, compounds were diluted to twice the desired final concentration and added in 100 µL of media for a final volume of 200 μL. Standard solutions for each compound were prepared at 1000× concentration in DMSO. The highest concentration was 30 mM. Serial 1:1 dilutions were made from there for a 6- or 9-point curve (e.g., 30 mM, 15 mM, 7.5 mM, etc). Compounds were then diluted 1:500 in media, and 100 µL of the resulting solution was added to each well for a final dilution of 1:1000. Each concentration of compound was tested in triplicate. Cells were incubated at 37° C. with 5% CO2. After 72 hours, 20 μL of CellTiter 96 Aqueous One Solution Cell Proliferation Assay (Promega) was added to each well. Cells were placed back in the incubator, and the absorbance at 490 nm was read after 2-3 hours. The concentration of compound that decreased the number of metabolically active cells by 50% was determined and reported as the IC50. “Percent Viability” was determined by subtracting the average background value (media only) and expressed as a ratio to the average value obtained from cells treated with only DMSO.

AsPC-1 = test: IC50 cell-based assay, adherent cells, AsPC-1; conditions: Homo sapiens, ASPC1, Pancreas, carcinoma, 72 hours, read-out: IC50 of Compounds in Adherent Cell Types
Protocol: as §1

MHH-CALL-4 = test: IC50 cell-based assay, suspension cells, MHH-CALL-4; conditions: MHHCALL4, Leukemia, B-ALL (CRLF2 Hi), read-out: IC50 of Compounds in Suspension Cell Types
Protocol: as §1
(§2) In one embodiment, the IC50s of the compounds provided herein were determined in cell-based assays using suspension cells. In one embodiment, the activity of the compounds provided herein were determined in a cell-based assay using the JeKo-1 cell line (mantle cell lymphoma) or the Pfeiffer cell line (diffuse large B-cell lymphoma). In one embodiment, the suspension cells used in the cell-based assays may be a cell type selected from Table 2. Assays with suspension cells were similar except that 40,000-60,000 cells were added to each well and compounds were added immediately after cell plating.

HL-60 = test: IC50 cell-based assay, suspension cells, HL-60; conditions: Homo sapiens, Leukemia, AML, read-out: IC50 of Compounds in Suspension Cell Types
Protocol: as §1, §2

MDA-MB-231 = test: IC50 cell-based assay, adherent cells, MDA-MB-231; conditions: Homo sapiens, Breast, triple neg, 72 hours, read-out: IC50 of Compounds in Adherent Cell Types
Protocol: as §1

Z138, JeKo-1 = test: IC50 cell-based assay, suspension cells, Z138, JeKo-1; conditions: Lymphoma, Mantle cell, read-out: IC50 of Compounds in Suspension Cell Types
Protocol: as §1, §2

SK-MEL-28 = test: IC50 cell-based assay, adherent cells, SK-MEL-28; conditions: Homo sapiens, Melanoma, 72 hours, read-out: IC50 of Compounds in Adherent Cell Types
Protocol: as §1

RT-4 = test: IC50 cell-based assay, adherent cells, RT-4; conditions: Homo sapiens, Bladder, papilloma, 72 hours, read-out: IC50 of Compounds in Adherent Cell Types
Protocol: as §1

U87-MG = test: IC50 cell-based assay, adherent cells, U87-MG; conditions: Homo sapiens, U-87 MG, Brain, glioblastoma, 72 hours, read-out: IC50 of Compounds in Adherent Cell Types
Protocol: as §1

Nalm-6-VR = test: IC50 cell-based assay, suspension cells, Nalm-6-VR; conditions: Leukemia, B-ALL, Vincristine resistant, read-out: IC50 of Compounds in Suspension Cell Types
Protocol: as §1, §2

A549 = test: IC50 cell-based assay, adherent cells, A549; conditions: Homo sapiens, Lung, NSCLC, 72 hours, read-out: IC50 of Compounds in Adherent Cell Types
Protocol: as §1

SKBR-3 = test: IC50 cell-based assay, adherent cells, SKBR-3; conditions: Homo sapiens, SK-BR-3, Breast, ER−, 72 hours, read-out: IC50 of Compounds in Adherent Cell Types
Protocol: as §1

Caki-1 = test: IC50 cell-based assay, adherent cells, Caki-1; conditions: Homo sapiens, Kidney, clear cell carc., skin met, 72 hours, read-out: IC50 of Compounds in Adherent Cell Types
Protocol: as §1

1937 = test: IC50 cell-based assay, adherent cells, 1937; conditions: Breast, triple neg, 72 hours, read-out: IC50 of Compounds in Adherent Cell Types
Protocol: as §1

A431 = test: IC50 cell-based assay, adherent cells, A431; conditions: Homo sapiens, A-431, Skin, epidermoid carcinoma, 72 hours, read-out: IC50 of Compounds in Adherent Cell Types
Protocol: as §1

H-460 = test: IC50 cell-based assay, adherent cells, H-460; conditions: Homo sapiens, NCI-H460, Lung, large cell carcinoma, 72 hours, read-out: IC50 of Compounds in Adherent Cell Types
Protocol: as §1

Kg1a = test: IC50 cell-based assay, suspension cells, Kg1a; conditions: Homo sapiens, KG-1a, Leukemia, AML, read-out: IC50 of Compounds in Suspension Cell Types
Protocol: as §1, §2

MCF-7 = test: IC50 cell-based assay, adherent cells, MCF-7; conditions: Homo sapiens, MCF7, Breast, ER+, 72 hours, read-out: IC50 of Compounds in Adherent Cell Types
Protocol: as §1

SupB15 = test: IC50 cell-based assay, suspension cells, SupB15; conditions: Homo sapiens, SUP-B15, Leukemia, B-ALL (Philadelphia chromosome+), read-out: IC50 of Compounds in Suspension Cell Types
Protocol: as §1, §2

Panc-1 = test: IC50 cell-based assay, adherent cells, Panc-1; conditions: Homo sapiens, Pancreas, epitheloid carcinoma, 72 hours, read-out: IC50 of Compounds in Adherent Cell Types
Protocol: as §1

FaDu = test: IC50 cell-based assay, adherent cells, FaDu; conditions: Homo sapiens, Pharynx, squamous cell, 72 hours, read-out: IC50 of Compounds in Adherent Cell Types
Protocol: as §1

MDA-MB-361 = test: IC50 cell-based assay, adherent cells, MDA-MB-361; conditions: Homo sapiens, Breast, Brain met Her2-neu + ER +, 72 hours, read-out: IC50 of Compounds in Adherent Cell Types
Protocol: as §1

Hep-G2 = test: IC50 cell-based assay, adherent cells, Hep-G2; conditions: Homo sapiens, HepG2, Liver, hepatocellular carcinoma, 72 hours, read-out: IC50 of Compounds in Adherent Cell Types
Protocol: as §1

OVCAR-3 = test: IC50 cell-based assay, adherent cells, OVCAR-3; conditions: Homo sapiens, Ovarian, adenocarcinoma, 72 hours, read-out: IC50 of Compounds in Adherent Cell Types
Protocol: as §1

Pfeiffer = test: IC50 cell-based assay, suspension cells, Pfeiffer; conditions: Homo sapiens, Lymphoma, Diffuse large b-cell, read-out: IC50 of Compounds in Suspension Cell Types
Protocol: as §1, §2

[1] = system: triple negative breast cancer cell line MDA-MB-468; test: IC50 cell-based assay, adherent cells, MDA-MB-468; conditions: Homo sapiens
Protocol: as §1
The IC50s of the compounds provided herein were determined in cell-based assay using triple negative breast cancer cell line MDA-MB-468.

Nalm-6 = test: IC50 cell-based assay, suspension cells, Nalm-6; conditions: Homo sapiens, Leukemia, B-ALL, read-out: IC50 of Compounds in Suspension Cell Types
Protocol: as §1, §2

## O=C(Nc1cc(F)cc(C(F)(F)F)c1)c1cc(-c2ccccc2)oc1C(F)(F)F [Compound 6, 5-Phenyl-2-trifluoromethyl-furan-3-carboxylic acid (3-fluoro-5-trifluoromethyl-phenyl)-amide]
HT-29
  IC50: > 20 µM
AsPC-1
  IC50: 5 to 10 µM
MHH-CALL-4
  IC50: 10 to 20 µM
HL-60
  IC50: 5 to 10 µM
MDA-MB-231
  IC50: 5 to 10 µM
Z138, JeKo-1
  IC50: 5 to 10 µM
SK-MEL-28
  IC50: 5 to 10 µM
RT-4
  IC50: > 20 µM
U87-MG
  IC50: 10 to 20 µM
Nalm-6-VR
  IC50: < 5 µM
A549
  IC50: 5 to 10 µM
SKBR-3
  IC50: < 5 µM
Caki-1
  IC50: 5 to 10 µM
1937
  IC50: 5 to 10 µM
A431
  IC50: 5 to 10 µM
H-460
  IC50: > 20 µM
Kg1a
  IC50: 10 to 20 µM
MCF-7
  IC50: 5 to 10 µM
SupB15
  IC50: 5 to 10 µM
Panc-1
  IC50: 5 to 10 µM
FaDu
  IC50: 5 to 10 µM
MDA-MB-361
  IC50: 10 to 20 µM
Hep-G2
  IC50: > 20 µM
OVCAR-3
  IC50: 5 to 10 µM
Pfeiffer
  IC50: 10 to 20 µM
[1]; MDA-MB-468, Breast, triple neg, 72 hours, Table 1, read-out: IC50 of Compounds in Adherent Cell Types
  IC50: < 5 µM
[1]; MDA-MB-468 cells, Table 3, read-out: IC50 of Compounds in MDA-MB-468 Cells
  IC50: 4 µM
Nalm-6
  IC50: < 5 µM
